Experimental data as given in patent US3932382A, “Dideoxybutirosin derivative” (Sankyo Company Limited, priority 1973, dated 1976).
≈ marks a conversion by molar mass, not a printed value. Read-outs that look alike come from different tables or passages of the source.

How the values were obtained:
[1] = for Death incidence: mouse, in vivo
From the text: Acute Toxicities of 3',4'-Dideoxybutirosin A
Mice : ddY strain, male, 20 ± 0.2 g.

[2] = system: P. aeruginosa clinical isolates (102 strains); assay: Susceptibility of Clinical Isolates (Table III); type: cell-based; settings: of 102 strains
From the text: (§1) Susceptibility of Clinical Isolates to 3',4'-

[3] = system: E. coli clinical isolates (125 strains); assay: Susceptibility of Clinical Isolates (Table III); type: cell-based; settings: of 125 strains
From the text: as §1

E. coli 704-1 = assay: Protecting Effects in Mice (Table II); type: in vivo; settings: 2 doses subcutaneously at 0 and 4 hours post-infection
From the text: (§2) Protecting Effects of 3',4'-Dideoxybutirosin A in Mice
ED50 : mg./kg./dose (2 doses subcutaneously at 0 and […]

[4] = system: butirosin sensitive strains; assay: Antibacterial activity against butirosin sensitive strains, statement; type: cell-based
From the text: (§3) Minimum Inhibitory Concentration of 3',4'-
(§4) Medium : Heart-Infusion Agar

[5] = system: gram-positive and -negative bacteria; assay: Antibacterial activity, general statement; type: cell-based
[6] = system: Staphylococcus aureus 209P; assay: Minimum Inhibitory Concentration (Table I); type: cell-based; settings: Heart-Infusion Agar
From the text: as §3, §4

Staph. aureus 56 = assay: Minimum Inhibitory Concentration (Table I); type: cell-based; settings: Staphylococcus aureus, Heart-Infusion Agar
From the text: as §3, §4

Klebsiella 806 = assay: Minimum Inhibitory Concentration (Table I); type: cell-based; settings: Heart-Infusion Agar
From the text: as §3, §4

Shigella flexneri 2a = assay: Minimum Inhibitory Concentration (Table I); type: cell-based; settings: Heart-Infusion Agar
From the text: as §3, §4

Proteus vulgaris 025 = assay: Minimum Inhibitory Concentration (Table I); type: cell-based; settings: Heart-Infusion Agar
From the text: as §3, §4

[7] = system: Pseudomonas aeruginosa Scr.; assay: Minimum Inhibitory Concentration (Table I); type: cell-based; settings: Heart-Infusion Agar
From the text: as §3, §4

Salmonela enteritidis = assay: Minimum Inhibitory Concentration (Table I); type: cell-based; settings: Heart-Infusion Agar
From the text: as §3, §4

Escherichia coli N I H J = assay: Minimum Inhibitory Concentration (Table I); type: cell-based; settings: Heart-Infusion Agar
From the text: as §3, §4

[8] = system: Bacillus subtilis P C I-219; assay: Minimum Inhibitory Concentration (Table I); type: cell-based; settings: PCI219, Heart-Infusion Agar
From the text: as §3, §4

E. coli 665 [9] = assay: Protecting Effects in Mice (Table II); type: in vivo; settings: 2 doses subcutaneously at 0 and 4 hours post-infection, butirosin-resistant strain
From the text: as §2
ED50 : mg./kg./dose (2 doses subcutaneously at 0 and
*Butirosin-resistant strain

[10] = system: butirosin-resistant bacteria; assay: Antibacterial activity against butirosin-resistant bacteria, statement; type: cell-based
From the text: as §3
(§5) Mark *means butirosin-resistant bacteria
as §4

[11] = system: Pseudomonas aeruginosa 1055; assay: Minimum Inhibitory Concentration (Table I); type: cell-based; settings: Heart-Infusion Agar, butirosin-resistant bacteria
From the text: as §3, §5, §4

E. coli 620 = assay: Minimum Inhibitory Concentration (Table I); type: cell-based; settings: Escherichia coli, Heart-Infusion Agar, butirosin-resistant bacteria
From the text: as §3, §5, §4

E. coli 665 [12] = assay: Minimum Inhibitory Concentration (Table I); type: cell-based; settings: Escherichia coli, Heart-Infusion Agar, butirosin-resistant bacteria
From the text: as §3, §5, §4

NCC[C@H](O)C(=O)N[C@@H]1C[C@H](N)[C@@H](O[C@H]2O[C@H](CN)CC[C@H]2N)[C@H](O[C@@H]2O[C@H](CO)[C@H](O)[C@H]2O)[C@H]1O [3',4'-Dideoxybutirosin A]
toxicity ([1]; as compared with the prior similar aminoglycoside antibiotics): considerably low toxicity
Death incidence ([1]; iv, 250 mg/kg): 0/3
Death incidence ([1]; iv, 500 mg/kg): 1/2
Death incidence ([1]; sc, 2000 mg/kg): 0/3
number of strains with MIC 0.8 mcg./ml. ([2]; MIC 0.8 mcg./ml.): 1 strains
number of strains with MIC 1.5 mcg./ml. ([2]; MIC 1.5 mcg./ml.): 3 strains
number of strains with MIC 3.1 mcg./ml. ([2]; MIC 3.1 mcg./ml.): 5 strains
number of strains with MIC 6.2 mcg./ml. ([2]; MIC 6.2 mcg./ml.): 20 strains
number of strains with MIC 12.5 mcg./ml. ([2]; MIC 12.5 mcg./ml.): 41 strains
number of strains with MIC 25 mcg./ml. ([2]; MIC 25 mcg./ml.): 21 strains
number of strains with MIC 50 mcg./ml. ([2]; MIC 50 mcg./ml.): 3 strains
number of strains with MIC 100 mcg./ml. ([2]; MIC 100 mcg./ml.): 5 strains
number of strains with MIC 200 mcg./ml. ([2]; MIC 200 mcg./ml.): 2 strains
number of strains with MIC >200 mcg./ml. ([2]; MIC >200 mcg./ml.): 1 strains
number of strains with MIC 0.8 mcg./ml. ([3]; MIC 0.8 mcg./ml.): 0 strains
number of strains with MIC 1.5 mcg./ml. ([3]; MIC 1.5 mcg./ml.): 0 strains
number of strains with MIC 3.1 mcg./ml. ([3]; MIC 3.1 mcg./ml.): 0 strains
number of strains with MIC 6.2 mcg./ml. ([3]; MIC 6.2 mcg./ml.): 6 strains
number of strains with MIC 12.5 mcg./ml. ([3]; MIC 12.5 mcg./ml.): 100 strains
number of strains with MIC 25 mcg./ml. ([3]; MIC 25 mcg./ml.): 15 strains
number of strains with MIC 50 mcg./ml. ([3]; MIC 50 mcg./ml.): 2 strains
number of strains with MIC 100 mcg./ml. ([3]; MIC 100 mcg./ml.): 2 strains
number of strains with MIC 200 mcg./ml. ([3]; MIC 200 mcg./ml.): 0 strains
number of strains with MIC >200 mcg./ml. ([3]; MIC >200 mcg./ml.): 0 strains
ED50 (E. coli 704-1; Escherichia coli, 7041, sc, read-out: ED50): 2.3 mg/kg
activities against butirosin sensitive strains [4]: outstanding activities
antibacterial activities [5]: broad antibacterial activities
MIC [6]: 0.1 µg/mL (≈ 0.191 µM)
MIC (Staph. aureus 56): 0.4 µg/mL (≈ 0.764 µM)
MIC (Klebsiella 806): 0.8 µg/mL (≈ 1.53 µM)
MIC (Shigella flexneri 2a): 3.1 µg/mL (≈ 5.92 µM)
MIC (Proteus vulgaris 025): 0.8 µg/mL (≈ 1.53 µM)
MIC [7]: 3.1 µg/mL (≈ 5.92 µM)
MIC (Salmonela enteritidis): 1.5 µg/mL (≈ 2.86 µM)
MIC (Escherichia coli N I H J): 0.4 µg/mL (≈ 0.764 µM)
MIC [8]: 0.1 µg/mL (≈ 0.191 µM)
ED50 (E. coli 665 [9]; Escherichia coli, 665, sc, read-out: ED50): 2.43 mg/kg
activity against butirosin-resistant bacteria [10]: an activity against butirosin -resistant bacteria
activity against butirosin-resistant bacteria ([10]; listed as 3', 4'-dideoxybutirosin A (I)): outstanding activities
MIC [11]: 6.2 µg/mL (≈ 11.8 µM)
MIC (E. coli 620): 3.1 µg/mL (≈ 5.92 µM)
MIC (E. coli 665 [12]): 3.1 µg/mL (≈ 5.92 µM)

Butirosin [reference compound]
ED50 (E. coli 704-1): 2.47 mg./kg./dose
ED50 (E. coli 665 [9]): 146.3 mg./kg./dose
